Structures can show the parent of a compound that is named as a salt. Where two headings read alike, the source gives them in different places. Marks after values point to notes of the source that are not given here.
Columns and labels:
dog renal Na,K-ATPase = dog renal Na,K-ATPase (Canis lupus familiaris (Dog) (Canis familiaris), UniProt P50997); experiment: Inhibition of dog renal Na,K-ATPase activity (32P-ATP); type: biochemical
Protocol: Kidneys were sliced and the outer medulla was dissected, pooled and suspended (1 g/10 ml) in a sucrose-histidine solution, containing 250 mM sucrose, 30 mM histidine and 5 mM EDTA, pH 7.2 and homogenized. The homogenate was centrifuged at 6.000 g for 15 min, the supernatant was decanted and centrifuged at 48.000 g for 30 min. The pellet was suspended in the sucrose-histidine buffer and incubated for 20 min with a sodium-dodecyl-sulphate (SDS) solution dissolved in a gradient buffer, containing 25 mM imidazole and 1 mM EDTA, pH 7.5. […] The pellet was suspended in the gradient buffer.
Increasing concentrations of the standard ouabain, or tested compound, were incubated with 0.3 μg of purified dog kidney enzyme for 10 min at 37° C. in 120 μl final volume of a medium containing 140 mM NaCl, 3 mM MgCl2, 50 mM Hepes-Tris, 3 mM ATP at a pH 7.5. Then, 10 μl of incubation solution containing 10 mM KCl and 20 nCi of ^32P-ATP (3-10 Ci/mmol, Perkin Elmer) was added, and the reaction was continued for 15 min at 37° C. The reaction was then stopped by acidification with 20% v/v ice-cold perchloric acid. ^32P was separated by centrifugation with activated Charcoal (Norit A, Serva) and the radioactivity was measured. The inhibitory activity was expressed as percent of the control samples carried out in the absence of ouabain or tested compound.

SERCA2a [1] = settings: previous studies; cited from earlier work
[2] = death due mainly to arrhythmias; cited from earlier work
[3] = Plasma levels of istaroxime and its metabolites in patients (HPLC-MS/MS); type: in vivo, human; settings: 24 h infusion of 0.5 or 1 μg/kg/min istaroxime, Caucasian and Chinese patients
Protocol: The quantitative determination of PST 2744 and its metabolite PST 2915 in human plasma was determined by the HPLC-MS/MS method that included a mobile phase of 70:30 acetonitrile/water, 1 mL/L 1M formic acid, and 1 mL/L 5M ammonium acetate. The flow rate was 1 mL/min, and the chromatographic separation was by reversed phase HPLC (Column: SYNERGI 4μ POLAR-RP80A 150×4.6 mm equipped with a Security-guard Phenomenex Polar-RP 4×3 mm). Detection was performed by MS/MS, and the acquisition mode was Multiple Reaction Monitoring (MRM).
The quantitative determination of istaroxime metabolies PST 2922 and PST 3093 in human plasma was also measured by the HPLC-MS/MS method. In this case, the mobile phase was 50:50 H2 O/CH3 CN (v/v) and 500 μL/L 98-100% HCOOH. The flow rate was 1 mL/min and chromatographic separation was done by reversed-phase HPLC (Column: Phenomenex Phenyl hexyl, 150×4.6 mm, equipped with a Phenomenex phenyl propyl guard-cartridge) under isocratic conditions. Detection was performed by MS/MS (376.0→282.0 amu for PST2922, 378.0→284.0 amu for PST 3093 and 362.0→268.0 amu for PST 3418, IS).

SERCA2a [4] = molecular target: SERCA2a (Canis lupus familiaris (Dog) (Canis familiaris), UniProt O46674); experiment: SERCA2a ATPase activity in heart-derived SR microsomes from normal dog; type: biochemical; settings: normal dog SR microsomes
Protocol: Male beagle dogs were used for obtaining cardiac tissues for SERCA2a-enriched sarcoplasmic reticulum preparations. Healthy dogs were utilized for obtaining the data in Table 3. Chronic heart failure was induced in dogs by multiple intracoronary microembolizations with polystyrene latex microspheres ([…], Polysciences, Warrington, PA, USA) as described previously (see Sabbah H N et al., Am J Physiol. 1991; 260:H1379-84). The experiments were conducted in the General Pharmacology Department of Sigma-Tau, Rome, Italy.
Left ventricle tissues were dissected, homogenized in 4 volumes of 10 mM NaHCO3 (pH 7), 1 mM PMSF, 10 μg/ml Aprotinin and Leupeptin and centrifuged at 12.000 g for 15 minutes, as described in Nediani C. et al. (J Biol Chem. 1996; 271:19066-73). Supernatants were filtered and centrifuged at 100.000 g for 30 min. Contractile proteins were extracted by suspending the pellets with 0.6 M KCl, 30 mM Histidine, pH 7 and further centrifugation at 100.000 g for 30 min. Final pellets were reconstituted with 0.3 M Sucrose, 30 mM Histidine, pH 7.
SERCA2a activity was measured in vitro as ^32P-ATP hydrolysis at different Ca2^+ concentrations (100 to 3000 nM) in the absence and presence of the tested compounds as described previously (see Micheletti R. et al., Am J Card 2007; 99:24A-32A). Increasing concentrations of each compound (from 0.05 to 300 nM) were pre-incubated with 2 μg of microsomes for 5 min at 4° C. in 80 μl of a solution containing 100 mM KCl, 5 mM MgCl2, 1 μM A23187, 20 mM Tris, pH 7.5. Then, 20 μl of 5 mM Tris-ATP containing 50 nCi of ^32P-ATP (3-10 Ci/mmol, Perkin Elmer) was added. The ATP hydrolysis was continued for 15 min at 37° C. and was stopped by acidification with 100 μl of 20% v/v ice-cold perchloric acid. ^32P was separated by centrifugation with activated charcoal (Norit A, SERVA) and the radioactivity was measured. SERCA2a-dependent activity was identified as the portion of total hydrolytic activity inhibited by 10 μM cyclopiazonic acid (see Seidler N W. et al., J Biol Chem. 1989; 264:17816-23).
Dose-response curves were fitted by using a sigmoidal curve fitting software and the maximal velocity (Vmax) activity and the Kd Ca2^+ were calculated (Synergy Software KaleidaGraph 3.6).
The compounds disclosed herein were tested on SERCA2a ATPase activity prepared from normal and failing dogs in a range of concentrations from […]. The effect has been expressed as % increase of the Vmax activity of a control sample run in the absence of compound. Data are mean & SD, where n indicates the number of experiments.

[5] = stimulation of cardiac pumping ability; cited from earlier work

Chain of SERCA2a (Canis lupus familiaris (Dog) (Canis familiaris), UniProt O46674) (O46674 whole entry): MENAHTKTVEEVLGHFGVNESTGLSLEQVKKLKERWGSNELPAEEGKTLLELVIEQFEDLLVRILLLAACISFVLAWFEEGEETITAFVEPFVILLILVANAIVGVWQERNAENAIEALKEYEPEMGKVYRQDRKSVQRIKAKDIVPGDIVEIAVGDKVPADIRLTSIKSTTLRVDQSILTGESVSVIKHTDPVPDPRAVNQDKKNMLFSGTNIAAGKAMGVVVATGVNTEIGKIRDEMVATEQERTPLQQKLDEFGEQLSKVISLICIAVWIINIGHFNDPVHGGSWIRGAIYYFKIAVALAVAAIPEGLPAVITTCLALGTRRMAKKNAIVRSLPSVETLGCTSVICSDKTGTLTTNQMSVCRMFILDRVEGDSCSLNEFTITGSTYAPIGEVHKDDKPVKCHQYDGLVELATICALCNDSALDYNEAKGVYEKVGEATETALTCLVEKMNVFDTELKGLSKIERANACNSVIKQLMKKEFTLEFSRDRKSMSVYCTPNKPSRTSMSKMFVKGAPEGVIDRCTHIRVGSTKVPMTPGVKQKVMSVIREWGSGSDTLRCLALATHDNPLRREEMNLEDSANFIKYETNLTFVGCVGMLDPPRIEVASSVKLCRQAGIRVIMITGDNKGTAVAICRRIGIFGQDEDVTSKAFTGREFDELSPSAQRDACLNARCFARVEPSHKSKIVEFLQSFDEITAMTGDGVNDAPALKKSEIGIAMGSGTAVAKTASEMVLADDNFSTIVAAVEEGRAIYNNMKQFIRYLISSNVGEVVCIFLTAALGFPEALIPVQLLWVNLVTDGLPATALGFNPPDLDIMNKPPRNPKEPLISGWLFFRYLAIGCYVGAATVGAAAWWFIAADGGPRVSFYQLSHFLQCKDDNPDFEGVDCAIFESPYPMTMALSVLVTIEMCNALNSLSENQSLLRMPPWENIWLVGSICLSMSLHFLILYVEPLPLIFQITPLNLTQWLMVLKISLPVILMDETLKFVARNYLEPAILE

Q: Which results are given for `C[C@H]1O[C@@H](O[C@H]2[C@@H](O)C[C@H](O[C@H]3[C@@H](O)C[C@H](O[C@H]4CC[C@@]5(C)[C@H](CC[C@@H]6[C@@H]5C[C@@H](O)[C@]5(C)[C@@H](C7=CC(=O)OC7)CC[C@]65O)C4)O[C@@H]3C)O[C@@H]2C)C[C@H](O)[C@@H]1O` [Digoxin]?
A: IC50 (dog renal Na,K-ATPase; purified dog kidney enzyme, 37° C., read-out: IC50, inhibition of dog renal Na,K-ATPase): 0.18 µM; SERCA2a activity stimulation (SERCA2a [1]): failed to stimulate; serum concentration threshold above which increased risk of death [2]: 0.9 ng/mL

Q: With `C[C@]12CCC(=NOCCN)CC1[C@H](O)CC1C2CC[C@]2(C)C(=O)CCC12` (stereo partly drawn) [PST 2915, (E,Z)-3-(2-Aminoethoxyimino)-6beta-hydroxyandrostan-17-one hydrochloride] as the compound, how does the “plasma concentration course during the infusion period” value [3] read?
A: continue to accumulate

Q: What about the IC50 (dog renal Na,K-ATPase) of the same compound?
A: 2.1 µM

Q: And the “% increase vs control (Vmax)” value (SERCA2a [4]; 0.1 nM compound)?
A: 11%

Q: What about the “% increase vs control (Vmax)” value (SERCA2a [4]; 10 nM compound) of the same compound?
A: 16* %

Q: With `COC(=O)N1CCN(Cc2cccc(NC(=O)Nc3ccc(C)nc3)c2F)CC1` [omecamtiv] as the compound, how does the “plasma levels of Hs TnT” value [5] read?
A: associated with an increase
